Laboratory results published in patent publication US20110224079A1, “SPIROHETEROCYCLIC N-OXYAMIDES AS PESTICIDES” (SYNGENTA CROP PROTECTION LLC, priority 2008, published 2011).

Tests used:
[1] = tested on: Myzus persicae (green peach aphid); assay: Example B2: activity against Myzus persicae, pea seedling roots in test solution (systemic/feeding, curative); conditions: 144 h, read-out: activity (mortality)
[2] = tested on: Nilaparvata lugens (brown rice planthopper); assay: Example B8: activity against Nilaparvata lugens, sprayed rice seedlings (larvicide, feeding/contact); conditions: in Oryza sativa, read-out: activity (mortality, growth regulation, effects on F1 generation)
[3] = tested on: Myzus persicae (green peach aphid); assay: Example B1: activity against Myzus persicae, sprayed sunflower leaf discs (feeding/residual contact, preventive); conditions: foliar, 144 h, read-out: activity (mortality)
[4] = tested on: Tetranychus urticae (two-spotted spider mite); assay: Example B4: activity against Tetranychus urticae, sprayed bean leaf discs (feeding/residual contact, preventive); conditions: foliar, 192 h, read-out: activity (egg, larval and adult mortality)
[5] = tested on: Thrips tabaci (onion thrips); assay: Example B3: activity against Thrips tabaci, sprayed sunflower leaf discs (feeding/residual contact, preventive); format: in vivo; conditions: foliar, 144 h, mixed population, 6 days
Text: Activity Against Thrips tabaci (Onion Thrips)
(Mixed Population, Feeding/Residual Contact Activity, Preventive)

[6] = tested on: Myzus persicae (green peach aphid); assay: Example B17: activity against Myzus persicae on sprayed pepper plants (feeding/residual contact); format: in vivo; conditions: 144 h, infested pepper plants sprayed, 6 days
[7] = tested on: Myzus persicae (green peach aphid); assay: Example B13: drench activity against Myzus persicae, pea seedlings in field soil; conditions: 168 h, read-out: drench activity (mortality)
[8] = tested on: Aphis Craccivora (cowpea aphid); assay: Example B11: translaminar activity against Aphis craccivora on French bean leaves; format: in vivo; conditions: 120 h, upper leaf side painted, aphids on lower side, 5 days
Protocol: Translaminar Activity Against Aphis Craccivora (Cowpea Aphid)
French bean leaves (Phaseolus vulgaris) are infested with about 20 mixed age individuals on the lower leaf side using clip cages. 1 day after the infestation, the upper side of the leaves is treated with the test solution by painting. 5 days later, samples are checked for mortality.

[9] = tested on: Aphis Craccivora (cowpea aphid); assay: Example B10: activity against Aphis craccivora, pea seedling roots in test solution (systemic/feeding); format: in vivo; conditions: 144 h, roots of infested pea seedlings in test solution, 6 days
Text: Activity Against Aphis Craccivora (Cowpea Aphid)
(Mixed Population, Systemic/Feeding)

[10] = tested on: Bemisia tabaci (tobacco white fly); assay: Example B7: activity against Bemisia tabaci, sprayed bean plants (larvicide, contact/feeding); format: in vivo; conditions: 504 h, bean plants with N-2 nymphs sprayed, three weeks, read-out: activity (efficacy, number of emerged adults)
Protocol: Activity Against Bemisia tabaci (Tobacco White Fly)
(Larvicide, Contact/Feeding)
Bean plants are infested with 20-30 adults that were removed after a 4 day egg-laying period. After another 7 days, bean plants with hatched nymphs (N-2) are treated (2 replicates) with the test solutions in a spray chamber. Three weeks later, samples are checked for number of emerged adults. Efficacy was calculated by comparing number of emerged adults in treated and non treated samples.

Row | Compound | mortality at 400 ppm [1] | mortality at 400 ppm [2] | mortality at 400 ppm [3] | mortality at 400 ppm [4] | mortality at 400 ppm [5] | mortality at 200 ppm [6] | mortality at 25 ppm [7] | mortality at 400 ppm [8] | mortality at 400 ppm [9] | pest or weed control at 200 ppm [10]
1 | CON1CCC2(CC1)C(O)=C(c1c(C)cc(C)cc1C)C(=O)N2OC1CCCC1 [P2.25] | > 80% | > 80% | > 80% | > 80% | – | – | – | – | – | –
2 | CON1CCC2(CC1)C(O)=C(c1c(C)cc(C)cc1C)C(=O)N2OCC1CCOC1 (stereo not shown) [P2.67] | > 80% | – | > 80% | > 80% | > 80% | ≥ 80% | – | – | – | –
3 | COCON1C(=O)C(c2cc(C)ccc2C)=C(OC(=O)C2CC2)C12CCN(OC)CC2 [P1.4, Cyclopropanecarboxylic acid 3-(2,5-dimethyl-phenyl)-8-methoxy-1-methoxymethoxy-2-oxo-1,8-diaza-spiro[4.5]dec-3-en-4-yl ester] | > 80% | > 80% | > 80% | > 80% | – | – | > 80% | > 80% | – | –
4 | CCOC(=O)OC1=C(c2c(C)cc(Br)cc2C)C(=O)N(OCOC)C12CCN(OC)CC2 [P1.62] | – | – | – | – | > 80% | – | – | – | – | –
5 | CON1CCC2(CC1)C(O)=C(c1c(C)cc(C)cc1C)C(=O)N2OCC1CCCCO1 (stereo not shown) [P2.23] | > 80% | > 80% | > 80% | – | – | – | – | > 80% | > 80% | –
6 | CON1CCC2(CC1)C(O)=C(c1c(C)cc(C)cc1C)C(=O)N2OC1CCOCC1 [P2.21] | > 80% | > 80% | > 80% | > 80% | – | ≥ 80% | > 80% | > 80% | > 80% | –
7 | CCOC(=O)OC1=C(c2ccc(C)cc2C)C(=O)N(OC2CCCO2)C12CCN(OC)CC2 (stereo not shown) [P1.47] | > 80% | – | > 80% | > 80% | > 80% | – | – | – | – | –
8 | CON1CCC2(CC1)C(O)=C(c1c(C)cc(C)cc1Br)C(=O)N2OC1CCCO1 (stereo not shown) [P2.69] | > 80% | – | > 80% | > 80% | – | ≥ 80% | – | – | – | –
9 | COCCON1C(=O)C(c2c(C)cccc2C)=C(O)C12CCN(OC)CC2 [P2.77] | > 80% | – | > 80% | – | > 80% | ≥ 80% | – | – | – | –
10 | CCOC(=O)OC1=C(c2c(C)ccc(C)c2C)C(=O)N(OCOC)C12CCN(OC)CC2 [P1.53] | > 80% | > 80% | – | – | – | ≥ 80% | > 80% | > 80% | > 80% | –
11 | CCOC(=O)OC1=C(c2c(C)ccc(Cl)c2C)C(=O)N(OCOC)C12CCN(OC)CC2 [P1.55] | > 80% | > 80% | > 80% | – | – | ≥ 80% | > 80% | > 80% | > 80% | –
12 | CCOC(=O)OC1=C(c2c(C)cc(C)cc2C)C(=O)N(OCC2(C)COC2)C12CCN(OC)CC2 [P1.23] | > 80% | – | – | – | – | – | > 80% | > 80% | > 80% | –
13 | CON1CCC2(CC1)C(O)=C(c1c(C)cc(C)cc1C)C(=O)N2OCc1ccoc1 [P2.64] | > 80% | > 80% | > 80% | > 80% | – | ≥ 80% | > 80% | > 80% | > 80% | > 80%
14 | CON1CCC2(CC1)C(O)=C(c1ccc(C)cc1C)C(=O)N2OC [P2.51] | > 80% | – | > 80% | – | > 80% | – | – | – | – | –
15 | CON1CCC2(CC1)C(O)=C(c1c(C)cc(C)cc1C)C(=O)N2OCC1CCCC1 [P2.85] | > 80% | – | > 80% | > 80% | – | ≥ 80% | – | – | – | –
16 | CCOC(=O)OC1=C(c2c(C)cc(C)cc2C)C(=O)N(OC2CCCC2)C12CCN(OC)CC2 [P1.28] | – | > 80% | – | > 80% | – | – | – | – | – | –
17 | CON1CCC2(CC1)C(O)=C(c1c(C)cc(C)cc1C)C(=O)N2OCC1CCC1 [P2.97] | > 80% | – | > 80% | > 80% | – | ≥ 80% | – | – | – | –

Row | Compound | mortality at 400 ppm [1] | mortality at 400 ppm [2] | mortality at 400 ppm [3] | mortality at 400 ppm [4] | mortality at 400 ppm [5] | mortality at 200 ppm [6] | mortality at 25 ppm [7] | mortality at 400 ppm [8] | mortality at 400 ppm [9] | pest or weed control at 200 ppm [10]
18 | CON1CCC2(CC1)C(O)=C(c1c(C)cc(Br)cc1C)C(=O)N2OC1CCCO1 (stereo not shown) [P2.62] | > 80% | – | – | – | > 80% | ≥ 80% | – | – | – | –
19 | CCOC(=O)OC1=C(c2c(C)cc(Br)cc2C)C(=O)N(OC)C12CCN(OC)CC2 [P1.88] | > 80% | > 80% | > 80% | > 80% | – | ≥ 80% | > 80% | – | – | –
20 | CON1CCC2(CC1)C(O)=C(c1cc(C)ccc1C)C(=O)N2OC [P2.1] | > 80% | – | > 80% | – | – | – | > 80% | – | – | –
21 | CCOC(=O)OC1=C(c2c(C)cc(C)cc2C)C(=O)N(OCCOC2CCCCO2)C12CCN(OC)CC2 (stereo not shown) [P1.25] | – | > 80% | – | > 80% | – | – | – | – | > 80% | –
22 | CCOC(=O)OC1=C(c2c(C)cc(C)cc2C)C(=O)N(OCC2CCCO2)C12CCN(OC)CC2 (stereo not shown) [P1.24] | > 80% | > 80% | > 80% | > 80% | – | ≥ 80% | > 80% | > 80% | > 80% | –
23 | CON1CCC2(CC1)C(O)=C(c1c(C)cc(C)cc1C)C(=O)N2OCC1CCOCC1 [P2.84] | > 80% | – | > 80% | – | > 80% | – | – | – | – | –
24 | CCOC(=O)OC1=C(c2c(C)ccc(C)c2Cl)C(=O)N(OCOC)C12CCN(OC)CC2 [P1.59] | > 80% | > 80% | > 80% | > 80% | – | – | > 80% | > 80% | > 80% | –
25 | CCOC(=O)OC1=C(c2c(C)cc(C)cc2Cl)C(=O)N(OC2CCCO2)C12CCN(OC)CC2 (stereo not shown) [P1.107] | > 80% | > 80% | > 80% | – | – | ≥ 80% | > 80% | > 80% | > 80% | –
26 | CCOC(=O)OC1=C(c2cc(C)c(C)cc2C)C(=O)N(OCOC)C12CCN(OC)CC2 [P1.56] | > 80% | – | > 80% | > 80% | – | ≥ 80% | – | – | – | –
27 | CON1CCC2(CC1)C(O)=C(c1c(C)cc(C)cc1C)C(=O)N2OCC1(C)COC1 [P2.19] | > 80% | > 80% | > 80% | > 80% | – | ≥ 80% | – | > 80% | > 80% | –
28 | CCOC(=O)OC1=C(c2c(C)cc(C)cc2C)C(=O)N(OCCCOC)C12CCN(OC)CC2 [P1.44] | > 80% | – | > 80% | > 80% | – | ≥ 80% | – | – | – | –
29 | COCCON1C(=O)C(c2c(C)cc(C)cc2Br)=C(O)C12CCN(OC)CC2 [P2.57] | > 80% | > 80% | > 80% | > 80% | – | – | > 80% | > 80% | > 80% | –
30 | CCOC(=O)OC1=C(c2c(C)cc(C)cc2C)C(=O)N(OCC2CCOC2)C12CCN(OC)CC2 (stereo not shown) [P1.78] | > 80% | > 80% | – | > 80% | – | ≥ 80% | > 80% | > 80% | > 80% | > 80%
31 | COCCON1C(=O)C(c2cc(C)ccc2C)=C(O)C12CCN(OC)CC2 [P2.3] | > 80% | > 80% | > 80% | – | – | ≥ 80% | > 80% | > 80% | – | –
32 | CCOC(=O)OC1=C(c2c(C)cc(C)cc2Br)C(=O)N(OC2CCCO2)C12CCN(OC)CC2 (stereo not shown) [P1.69] | > 80% | – | > 80% | > 80% | – | ≥ 80% | – | – | – | –
33 | CCOC(=O)OC1=C(c2c(C)cc(C)cc2Cl)C(=O)N(OC)C12CCN(OC)CC2 [P1.70] | > 80% | > 80% | > 80% | – | – | – | > 80% | > 80% | > 80% | –
